According to patent US20160200733A1, “SUBSTITUTED THIENO[2,3-B]PYRIDINE-2-CARBOXAMIDE ANALOGS AS POSITIVE ALLOSTERIC MODULATORS OF THE MUSCARINIC ACETYLCHOLINE RECEPTOR M4” (Vanderbilt University, priority 2013, published 2016):

Biological target: T1, mAChR hM4 (Homo sapiens, UniProt P08173)
T1 construct: expressed in transfected cells; host or cells: CHO-K1 (Chinese hamster ovary) cells
T1 sequence (P08173 1-479): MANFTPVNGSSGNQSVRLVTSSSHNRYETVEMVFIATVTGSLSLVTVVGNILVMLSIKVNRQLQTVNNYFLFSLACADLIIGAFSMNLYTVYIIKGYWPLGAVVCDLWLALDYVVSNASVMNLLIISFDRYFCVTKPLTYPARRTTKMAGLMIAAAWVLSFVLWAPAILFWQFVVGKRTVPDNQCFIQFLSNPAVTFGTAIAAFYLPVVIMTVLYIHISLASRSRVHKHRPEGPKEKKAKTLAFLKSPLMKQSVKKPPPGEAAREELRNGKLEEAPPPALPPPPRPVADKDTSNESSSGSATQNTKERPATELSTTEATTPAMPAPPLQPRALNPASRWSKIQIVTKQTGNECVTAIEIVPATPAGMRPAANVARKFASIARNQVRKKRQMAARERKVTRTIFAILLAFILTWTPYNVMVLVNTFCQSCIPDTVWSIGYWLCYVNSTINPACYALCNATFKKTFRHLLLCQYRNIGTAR
Assay: mAChR M4 cell-based functional assay (calcium flux, potentiation of EC20 acetylcholine response)
Conditions: mAChR hM4 cell-line; for EC50: >10,000 estimated for low potency compounds lacking a plateau
From the text: In one aspect, the disclosed compounds potentiate the agonist response (e.g., acetylcholine) of mAChR M4. In a further aspect, the disclosed compounds increase mAChR M4 response to non-maximal concentrations of agonist in the presence of compound compared to the response to agonist in the absence of compound. […] For example, activation of mAChR M4 activity can be determined by measurement of calcium flux in response to agonist, e.g. acetylcholine, in cells loaded with a Ca^2+-sensitive fluorescent dye (e.g., Fluo-4). In a further aspect, the calcium flux was measured as an increase in fluorescent static ratio. In a yet further aspect, positive allosteric modulator activity was analyzed as a concentration-dependent increase in the EC20 acetylcholine response (i.e. the response of mAChR M4 at a concentration of acetylcholine that yields 20% of the maximal response).
In one aspect, the disclosed compounds activate mAChR M4 response as an increase in calcium fluorescence in mAChR M4-transfected CHO-K1 cells in the presence of the compound, compared to the response of equivalent CHO-K1 cells in the absence of the compound. […] In a further aspect, the mAChR M4-transfected CHO-K1 cells are transfected with human mAChR M4. In a still further aspect, the mAChR M4-transfected CHO-K1 cells are transfected with rat mAChR M4.
Substituted 3-aminothieno[2,3-c]pyridine-2-carboxamide analogs were synthesized as described above. Activity (EC50 and Emax) was determined in the mAChR M4 cell-based functional assay as described above, and the data are shown in Table II for assays conducted using mAChR hM4 cell-line. The compound number corresponds to the compound numbers used in Table I.

EC50	Emax at 30 µM (% ACh maximum at 30 μM)	Emax (%) (% ACh maximum at 30 μM)	Structure (SMILES)
> 10000 nM	–	–	COc1ccc(CNC(=O)c2sc3nc(C)c(Cl)c(C)c3c2C2CC2)cc1 [Compound 53, 5-chloro-3-cyclopropyl-N-(4-methoxybenzyl)-4,6-dimethylthieno[2,3-b]pyridine-2-carboxamide]
430 nM	50%	–	Cc1nc2sc(C(=O)NC3CC3)c(C3CC3)c2c(C)c1Cl [Compound 54, 5-chloro-N,3-dicyclopropyl-4,6-dimethylthieno[2,3-b]pyridine-2-carboxamide]
860 nM	85%	–	Cc1nc2sc(C(=O)NC3COC3)c(C3CC3)c2c(C)c1Cl [Compound 55, 5-chloro-3-cyclopropyl-4,6-dimethyl-N-(oxetan-3-yl)thieno[2,3-b]pyridine-2-carboxamide]
1400 nM	38%	–	Cc1nc2sc(C(=O)NC3(C)COC3)c(C3CC3)c2c(C)c1Cl [Compound 56, 5-chloro-3-cyclopropyl-4,6-dimethyl-N-(3-methyloxetan-3-yl)thieno[2,3-b]pyridine-2-carboxamide]
1200 nM	79%	–	Cc1nc2sc(C(=O)NC3CCOC3)c(C)c2c(C)c1Cl (centres unmarked) [Compound 57, 5-chloro-3,4,6-trimethyl-N-(tetrahydrofuran-3-yl)thieno[2,3-b]pyridine-2-carboxamide]
> 10000 nM	–	–	Cc1nc2sc(C(=O)NC3CCN(C)CC3)c(C)c2c(C)c1Cl [Compound 58, 5-chloro-3,4,6-trimethyl-N-(1-methylpiperidin-4-yl)thieno[2,3-b]pyridine-2-carboxamide]
950 nM	45%	–	Cc1nc2sc(C(=O)NC3CCS(=O)(=O)C3)c(C)c2c(C)c1Cl (centres unmarked) [Compound 59, 5-chloro-N-(1,1-dioxidotetrahydrothiophen-3-yl)-3,4,6-trimethylthieno[2,3-b]pyridine-2-carboxamide]
380 nM	79%	–	Cc1nc2sc(C(=O)NC3CC3)c(C)c2c(C)c1Cl [Compound 60, 5-chloro-N-cyclopropyl-3,4,6-trimethylthieno[2,3-b]pyridine-2-carboxamide]
360 nM	–	70%	Cc1nc2sc(C(=O)NC3COC3)c(Br)c2c(C)c1Cl [Compound 61, 3-bromo-5-chloro-4,6-dimethyl-N-(oxetan-3-yl)thieno[2,3-b]pyridine-2-carboxamide]
> 10000 nM	–	–	Cc1nc2sc(C(=O)NC3COC3)c(-c3ccccc3)c2c(C)c1Cl [Compound 62, 5-chloro-4,6-dimethyl-N-(oxetan-3-yl)-3-phenylthieno[2,3-b]pyridine-2-carboxamide]
410 nM	76%	–	Cc1nc2sc(C(=O)NC3COC3)c(C)c2c(C)c1Cl [Compound 63, 5-chloro-3,4,6-trimethyl-N-(oxetan-3-yl)thieno[2,3-b]pyridine-2-carboxamide]
> 10000 nM	–	–	Cc1nc2sc(C(=O)N3CCC(c4ccccc4)C3)c(C3CC3)c2c(C)c1Cl (centres unmarked) [Compound 64, (5-chloro-3-cyclopropyl-4,6-dimethylthieno[2,3-b]pyridin-2-yl)(3-phenylpyrrolidin-1-yl)methanone]
> 10000 nM	–	–	COc1ccc(C2CC2NC(=O)c2sc3nc(C)c(Cl)c(C)c3c2C2CC2)cc1 (centres unmarked) [Compound 65, 5-chloro-3-cyclopropyl-N-(2-(4-methoxyphenyl)cyclopropyl)-4,6-dimethylthieno[2,3-b]pyridine-2-carboxamide]
> 10000 nM	–	–	COc1ccc(CNC(=O)c2sc3nc(C)cc(C)c3c2-c2cnn(C)c2)cc1F [Compound 66, N-(3-fluoro-4-methoxybenzyl)-4,6-dimethyl-3-(1-methyl-1H-pyrazol-4-yl)thieno[2,3-b]pyridine-2-carboxamide]
> 10000 nM	–	–	Cc1cc(C)c2c(-c3cnn(C)c3)c(C(=O)N3CCC(c4ccccc4)C3)sc2n1 (centres unmarked) [Compound 67, (4,6-dimethyl-3-(1-methyl-1H-pyrazol-4-yl)thieno[2,3-b]pyridin-2-yl)(3-phenylpyrrolidin-1-yl)methanone]
> 10000 nM	–	–	COc1ccc(C2CC2NC(=O)c2sc3nc(C)cc(C)c3c2-c2cnn(C)c2)cc1 (centres unmarked) [Compound 68, N-(2-(4-methoxyphenyl)cyclopropyl)-4,6-dimethyl-3-(1-methyl-1H-pyrazol-4-yl)thieno[2,3-b]pyridine-2-carboxamide]

EC50	Emax at 30 µM (% ACh maximum at 30 μM)	Emax (%) (% ACh maximum at 30 μM)	Structure (SMILES)
> 10000 nM	–	–	COc1ccc(CNC(=O)c2sc3nc(C)c(Cl)c(C)c3c2C2CC2)cc1F [Compound 69, 5-chloro-3-cyclopropyl-N-(3-fluoro-4-methoxybenzyl)-4,6-dimethylthieno[2,3-b]pyridine-2-carboxamide]
> 10000 nM	–	–	Cc1cc(C)c2c(-c3cnn(C)c3)c(C(=O)NCc3ccc4c(c3)CCO4)sc2n1 [Compound 70, N-((2,3-dihydrobenzofuran-5-yl)methyl)-4,6-dimethyl-3-(1-methyl-1H-pyrazol-4-yl)thieno[2,3-b]pyridine-2-carboxamide]
> 10000 nM	–	–	Cc1cc(C)c2c(-c3cnn(C)c3)c(C(=O)NCc3cnn(-c4ccccc4)c3)sc2n1 [Compound 71, 4,6-dimethyl-3-(1-methyl-1H-pyrazol-4-yl)-N-((1-phenyl-1H-pyrazol-4-yl)methyl)thieno[2,3-b]pyridine-2-carboxamide]
> 10000 nM	–	–	Cc1nc2sc(C(=O)N3CC(c4ccccc4)C3)c(C3CC3)c2c(C)c1Cl [Compound 72, (5-chloro-3-cyclopropyl-4,6-dimethylthieno[2,3-b]pyridin-2-yl)(3-phenylazetidin-1-yl)methanone]
> 10000 nM	–	–	Cc1nc2sc(C(=O)NCc3cnn(-c4ccccc4)c3)c(C3CC3)c2c(C)c1Cl [Compound 73, 5-chloro-3-cyclopropyl-4,6-dimethyl-N-((1-phenyl-1H-pyrazol-4-yl)methyl)thieno[2,3-b]pyridine-2-carboxamide]
> 10000 nM	46%	–	Cc1cc(C)c2cc(C(=O)NC3COC3)sc2n1 [Compound 74, 4,6-dimethyl-N-(oxetan-3-yl)thieno[2,3-b]pyridine-2-carboxamide]
1200 nM	67%	–	Cc1cc(C)c2cc(C(=O)NC3CN(c4cccnc4)C3)sc2n1 [Compound 75, 4,6-dimethyl-N-(1-(pyridin-3-yl)azetidin-3-yl)thieno[2,3-b]pyridine-2-carboxamide]
> 10000 nM	–	–	Cc1cc(C)c2cc(C(=O)NC3CN(c4ccc(C(F)(F)F)nc4)C3)sc2n1 [Compound 76, 4,6-dimethyl-N-(1-(6-(trifluoromethyl)pyridin-3-yl)azetidin-3-yl)thieno[2,3-b]pyridine-2-carboxamide]
> 10000 nM	–	–	Cc1cc(C)c2cc(C(=O)NCc3cnn(-c4ccccc4)c3)sc2n1 [Compound 77, 4,6-dimethyl-N-((1-phenyl-1H-pyrazol-4-yl)methyl)thieno[2,3-b]pyridine-2-carboxamide]
> 10000 nM	34%	–	Cc1cc(C)c2cc(C(=O)NCc3ccc(-c4cccnc4F)cc3)sc2n1 [Compound 78, N-(4-(2-fluoropyridin-3-yl)benzyl)-4,6-dimethylthieno[2,3-b]pyridine-2-carboxamide]
> 10000 nM	–	–	Cc1cc(C)c2cc(C(=O)NCc3ccc(-c4ccnnc4)s3)sc2n1 [Compound 79, 4,6-dimethyl-N-((5-(pyridazin-4-yl)thiophen-2-yl)methyl)thieno[2,3-b]pyridine-2-carboxamide]
> 10000 nM	–	–	Cc1cc(C)c2cc(C(=O)NCC3CCN(c4ccccc4)C3)sc2n1 (centres unmarked) [Compound 80, 4,6-dimethyl-N-((1-phenylpyrrolidin-3-yl)methyl)thieno[2,3-b]pyridine-2-carboxamide]
820 nM	30%	–	COc1ccc(C2CC2NC(=O)c2cc3c(C)cc(C)nc3s2)cc1 (centres unmarked) [Compound 81, N-(2-(4-methoxyphenyl)cyclopropyl)-4,6-dimethylthieno[2,3-b]pyridine-2-carboxamide]
2400 nM	34%	–	Cc1cc(C)c2cc(C(=O)N3CC(c4ccccc4)C3)sc2n1 [Compound 82, (4,6-dimethylthieno[2,3-b]pyridin-2-yl)(3-phenylazetidin-1-yl)methanone]
> 10000 nM	–	–	Cc1cc(C)c2cc(C(=O)N3CCC(c4ccccc4)C3)sc2n1 (centres unmarked) [Compound 83, (4,6-dimethylthieno[2,3-b]pyridin-2-yl)(3-phenylpyrrolidin-1-yl)methanone]
